One test deals with U87 shCTRL cells. Briefly: 2D random cell motility assay, U87 shCTRL. In kind it is cell-based, human. The conditions noted are these: 1.4 µM of compound 2, 1.6 µM of compound 9. The protocol:
Cell motility was recorded by time-lapse videomicroscopy, as previously described. Briefly, cells were trypsinized and then seeded on Fibronectin pre-coated 24-well plates at 10^4 cells per well and allowed to adhere at 37 °C for 2 h in a 5% CO2 incubator. The cells were briefly rinsed in imaging medium (EMEM containing 10% FBS) to remove unattached cells before imaging. For conditions using compounds, agents were added to cells 15 min before launching the recording of the time-lapse series. Next, the plates were placed on an inverted wide-field Nikon microscope equipped with a 10× air objective (NA = 0.3) at 37 °C in 5% CO2. For all conditions, 61 frames of four fields were acquired using a CCD camera (Coolsnap HQ camera, Photometrics, Tucson, AZ, USA) driven by NIS elements AR 2.30 software (Nikon, Heidelberg, Germany). Migration tracks (n = 60–80 cells) were used to calculate total migration distance, distance to origin, velocity, and directional persistence of cell migration. Velocity was calculated as the total migration distance divided by 600 (600 min is total time of experiment). The distance to origin was determined as the net translocation between the initial and the final position. Directional persistence was calculated as the ratio of the distance to origin to that of the total distance migration.

Test [1] has as its system U87 shCTRL and U87 shTau cells. Briefly: Acridine orange spectrofluorometry (late autophagy). In kind it is cell-based, human. The conditions noted are these: both cell types, 5 µM, 48 h. On the procedure:
Briefly, 2.10^5 cells in exponential growth were seeded in 6-well plates. After 24 h, they were treated with 5 µM of compounds for 48 h. Trypsinized cells were harvested, counted, and then centrifuged (1200 rpm, 5 min, at RT). The cells pellet was resuspended in 2 mL of acridine orange diluted in complete culture media to a final concentration of 1 µg/mL and incubated for 15 min in the dark. Cells were then collected by centrifugation (1200 rpm, 5 min, at RT). The cells pellet was resuspended in PBS to a suspension concentration of 2.10^5 cells/mL. The suspension was transferred to a quartz cuvette, and then fluorescence emission of acridine orange was measured with a FluoroMax-3 spectrofluorometer (Horiba Jobin Yvon, Palaisseau, France) (excitation at 490 nm).

For test [2], the system named is caspase 3 protein (Casp3) in U87 shCTRL and U87 shTau cells. As to the kind of experiment: Caspase 3 expression by Western blot (apoptosis). In kind it is cell-based, human. The conditions noted are these: both cell types, 48 h treatment. The protocol: Cells were lysed with freshly made RIPA buffer derivative (4.3 mL of TBS 1×, 50 µL of SDS 10%, 10 µL of EDTA 0.5 M, 500 µL of Triton 10×, and 1% inhibitors of protease and phosphatase). After 30 min of lysis at 4 °C under agitation, lysates were centrifuged at 10,000× g for 10 min at 4 °C. Equivalent amounts of proteins from the supernatant fraction were subjected to Western blot analysis. Protein samples were loaded (40 μg/lane) and separated on 10 or 12% sodium dodecyl sulfate-polyacrylamide gels. The separated proteins were transferred onto nitrocellulose blotting membrane using the Bio-Rad transfer system. Before blocking, the blots were stained with Ponceau red to visualize transfer efficiency. […] The band intensity was quantified using the ImageJ v1.50g software. […] The band intensity was quantified using the NIH ImageJ v1.50g software. […]
death. (A) The apoptotic protein casp ase 3 (Casp 3) was analy zed by western blot of U87 shCTRL and U87 shTau cells: for each s ample t he ratio between the amount of Casp3 and GAPDH was calculated as relative fold of the reference value (with or without the compound); n = 3 lysates, ns: non-si gnificant. […]
blot used for quantification. (B) The activity of necrotic LDH protein was analy zed by fluorescence emission in U87 shCTRL (upper panel) and U87 shTau (lower panel) cells. […]

The next test deals with U138 glioblastoma cells. Briefly: MTT cell viability assay, U138. The conditions noted are these: Homo sapiens, U138, 72 h, mean ± SEM, read-out: IC50 (metabolic activity). In kind it is cell-based. A digest of the protocol:
(§1)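 Cells seeded at 15,000/mL, cultured 24 h, then exposed to compounds at various concentrations for 72 h. Viability by MTT (3 h, 37 °C, DMSO-solubilized, 600 nm) as percent of untreated cells; three independent experiments, IC50 by Chou–Talalay method.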
On the technique in general: Tetrazolium assays rely on reduction of a dye to a coloured formazan, in cell work by metabolically active cells.

The test system of another test is U87 glioblastoma cells. Briefly: MTT cell viability assay, U87. In kind it is cell-based, human. The following applies: for IC50: Homo sapiens, U87, 72 h, MTT, mean ± SEM, read-out: IC50 (metabolic activity). The essentials: as §1
Another test concerns U251 glioblastoma cells. Briefly: MTT cell viability assay, U251. In kind it is cell-based. The following applies: Homo sapiens, U-251, U251, 72 h, mean ± SEM, read-out: IC50 (metabolic activity). The essentials: as §1

As a reminder, the IC50 is the concentration that gives 50% inhibition. As for `Nc1nc2ccc3oc(-c4cccc(Oc5ccccc5)c4)cc(=O)c3c2s1` [Compound 2, 2-amino-7-(3-phenoxyphenyl)-9H-chromeno [6,5-d]thiazol-9-one], the “decrease in distance to origin” value in the test on U87 shCTRL cells stood at 25%. Also, the decrease in velocity with U87 shCTRL cells amounted to 15%. Also, the “acridine orange fluorescence emission” value in test [1] is given as “shift to blue emission”. The “expression of caspase 3 (Casp3)” value in test [2] is “no change in the expression of Casp3”. In addition, the results for the IC50 in the test with U138 glioblastoma cells, in the test with U87 glioblastoma cells and in the test on U251 glioblastoma cells were 2300 ± 1000 nM, 1900 ± 700 nM and 1700 ± 500 nM, respectively. Besides, the “IC50 value fold lower than 1” value in the test with U87 glioblastoma cells (U87 cell line) is reported as “up to 10 fold”.
Regarding `Nc1nc2ccc3oc(C(=O)O)cc(=O)c3c2s1` [Compound 5], the “acridine orange fluorescence emission” value in test [1] is on record as “shift to blue emission”. Besides, the “expression of caspase 3 (Casp3)” value in test [2] is on record as “no change in the expression of Casp3”. Further, the IC50 in the test with U138 glioblastoma cells, with U87 glioblastoma cells and in the test on U251 glioblastoma cells was over 100000 nM throughout.
